The target of the test is T1, αβγXENaC (Xenopus ENaC) (Xenopus laevis, UniProt P51167+P51169+P51171).
T1 sequence (P51167 1-632): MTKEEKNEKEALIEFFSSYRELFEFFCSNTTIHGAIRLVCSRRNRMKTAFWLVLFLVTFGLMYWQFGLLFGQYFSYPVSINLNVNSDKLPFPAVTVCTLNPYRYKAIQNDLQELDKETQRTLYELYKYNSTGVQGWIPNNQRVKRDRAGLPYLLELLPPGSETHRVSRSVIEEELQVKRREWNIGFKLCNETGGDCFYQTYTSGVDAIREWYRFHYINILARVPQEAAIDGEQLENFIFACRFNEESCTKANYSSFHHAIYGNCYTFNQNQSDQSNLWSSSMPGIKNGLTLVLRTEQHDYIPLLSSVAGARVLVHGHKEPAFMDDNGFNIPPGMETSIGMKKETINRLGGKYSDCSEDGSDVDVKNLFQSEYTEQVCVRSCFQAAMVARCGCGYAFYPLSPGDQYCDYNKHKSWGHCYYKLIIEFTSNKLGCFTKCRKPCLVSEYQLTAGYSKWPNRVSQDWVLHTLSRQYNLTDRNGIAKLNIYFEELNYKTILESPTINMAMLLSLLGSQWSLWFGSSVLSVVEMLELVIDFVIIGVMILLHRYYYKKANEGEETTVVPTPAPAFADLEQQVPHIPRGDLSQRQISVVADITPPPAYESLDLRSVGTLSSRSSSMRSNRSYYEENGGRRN
T1 sequence (P51169 1-647): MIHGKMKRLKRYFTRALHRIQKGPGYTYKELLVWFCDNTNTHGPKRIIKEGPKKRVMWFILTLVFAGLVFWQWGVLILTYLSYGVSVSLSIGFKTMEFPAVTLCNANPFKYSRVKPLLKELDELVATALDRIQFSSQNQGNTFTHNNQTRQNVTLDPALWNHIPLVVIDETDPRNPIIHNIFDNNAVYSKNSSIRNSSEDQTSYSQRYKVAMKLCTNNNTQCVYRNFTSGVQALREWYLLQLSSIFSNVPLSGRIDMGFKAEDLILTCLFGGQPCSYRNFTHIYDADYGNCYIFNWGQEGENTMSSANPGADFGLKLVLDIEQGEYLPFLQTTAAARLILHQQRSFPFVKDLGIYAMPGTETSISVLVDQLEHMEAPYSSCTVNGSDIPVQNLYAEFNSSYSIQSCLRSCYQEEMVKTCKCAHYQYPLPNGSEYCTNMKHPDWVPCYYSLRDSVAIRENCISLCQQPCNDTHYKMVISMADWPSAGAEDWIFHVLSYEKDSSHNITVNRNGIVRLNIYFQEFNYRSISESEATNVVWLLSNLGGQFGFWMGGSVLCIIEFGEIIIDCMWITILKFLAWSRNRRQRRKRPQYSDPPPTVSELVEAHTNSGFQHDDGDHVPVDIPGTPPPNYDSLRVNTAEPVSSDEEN
T1 sequence (P51171 1-660): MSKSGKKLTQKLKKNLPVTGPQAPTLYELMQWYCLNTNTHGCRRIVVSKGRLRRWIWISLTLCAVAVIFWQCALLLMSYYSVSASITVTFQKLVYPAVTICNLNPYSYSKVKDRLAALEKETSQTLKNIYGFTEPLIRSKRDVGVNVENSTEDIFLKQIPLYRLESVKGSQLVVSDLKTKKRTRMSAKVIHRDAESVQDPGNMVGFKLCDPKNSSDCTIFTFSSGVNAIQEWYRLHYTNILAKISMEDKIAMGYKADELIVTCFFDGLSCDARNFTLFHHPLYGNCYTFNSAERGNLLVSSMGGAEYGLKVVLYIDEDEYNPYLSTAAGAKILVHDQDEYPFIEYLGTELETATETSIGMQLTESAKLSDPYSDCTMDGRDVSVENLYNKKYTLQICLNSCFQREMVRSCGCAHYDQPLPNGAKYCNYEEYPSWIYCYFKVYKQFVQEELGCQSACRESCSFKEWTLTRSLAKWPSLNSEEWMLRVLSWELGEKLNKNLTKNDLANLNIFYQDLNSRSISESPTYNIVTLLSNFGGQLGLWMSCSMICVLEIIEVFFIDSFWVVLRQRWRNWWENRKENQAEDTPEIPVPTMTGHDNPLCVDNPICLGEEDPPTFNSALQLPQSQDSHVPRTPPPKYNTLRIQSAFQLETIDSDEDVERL
As to the kind of experiment: two-electrode voltage clamp of Na+ current in oocytes. The class given is cell-based. Background: In two-electrode clamp one electrode senses voltage and the other passes current.

Molecules are shown by their SMILES.

In general, Ki refers to a dissociation constant, usually derived from enzyme kinetics or from competition with a known ligand.

On to `N=C(N)NC(=O)c1nc(Cl)c(N)nc1N` [amiloride], for which the affinity, expressed as Ki, was 550 ± 30 nM.
